Source: patent US20210212946A1, “SOLID SELF-EMULSIFYING CANNABINOID COMPOSITIONS” (ICDPHARMA LTD., priority 2018, published 2021)

Assays:
human lung tumors = human lung tumors implanted into rats and mice; cited from earlier work
[1] = Oral absorption of CBD in rats; assay type: in vivo, Sprague drawly rats; conditions: gavage to the stomach, 12 mg/kg, plasma CBD by LC-MS
Procedure: A tablet of composition of 5A was diluted with water of about 40° C. before administration to the rats to obtain CBD concentration of 12 mg/ml and to obtain the cannabinoid oil-in-water emulsion. The emulsion was administered in gavage to the stomach of Sprague drawly rats weighing 220 gr to 250 gr at 12 mg/kg. Blood sample was obtained at various time points after the oral administration and plasma separated. The CBD concentration in the plasma was tested by LC-MS and the area under the curve calculate. Group one was administered with 12 mg/kg of pure CBD dissolved in “solvent” propylene glycol:ethanol 1:1 solution. Group two received the test formulation.

Row | SMILES | reduction in tumor mass and volume (human lung tumors) | reduction of cancerous lesions in the lungs (human lung tumors) | Cmax ([1]; Sprague-Dawley, rat, po) | AUC (Area Under the Curve of CBD in rats' plasma) [1]
1 | CCCCCc1cc(O)c2c(c1)OC(C)(C)[C@@H]1CCC(C)=C[C@@H]21 [THC, tetrahydrocannabinol] | ≤ 50% | around 60% |  | 
2 | C=C(C)[C@@H]1CCC(C)=C[C@H]1c1c(O)cc(CCCCC)cc1O [CBD, cannabidiol] |  |  | 38 ng/mL | 90 ± 12 ng/mL/h
